In US20140171417A1, “TRICYCLIC COMPOUNDS” (NOVARTIS AG, priority 2012, published 2014) one finds IC50 data, which are given here for 18 compounds.

This test has as its target T1, CFTR (Homo sapiens, UniProt P13569).
T1 construct: expressed in transfected cells
Put plainly: IonWorks Quattro assay (CFTR Inhibitor Assay), whole-cell planar patch clamp. In kind it is cell-based. The following applies: inward current (−100 mV); CHO cells stably expressing WT-CFTR; CFTR activated by 10 μM forskolin; test compound incubated 10 min. The source says:
CFTR activity can be quantified by electrophysiology methods, using the whole-cell configuration of the patch clamp technique (Hamill O, Marty A, Neher E, Sakmann B and Sigworth F. ‘Improved patch-clamp techniques for high resolution current recording from cells and cell-free membrane patches.’ Pflugers Archive 1981 391: 85-100). This assay directly measures the currents associated with chloride flow through CFTR channels whilst either maintaining or adjusting the transmembrane voltage. This assay can use either single glass micropipettes or parallel planar arrays to measure CFTR activity from native or recombinant cell systems. Currents measured using parallel planar arrays can be quantified using an appropriately equipped instrument such as the IonWorks Quattro (Molecular Devices Corporation, Sunnyvale, Calif.). The Quattro system can measure CFTR currents from either a single cell per recording well (HT configuration) or alternatively from a population of 64 cells per well (Population Patch Clamp PPC) (Finkel A, Wittel A, Yang N, Handran S, Hughes J, Costantin J. ‘Population patch clamp improves data consistency and success rates in the measurement of ionic currents.’ J Biomol Screen. 2006 August; 11 (5):488-96).
Chinese hamster ovary (CHO) cells stably expressing WT-CFTR channels were used for the IonWorks Quattro experiments. Cells were maintained at 37° C. in 5% v/v CO2 at 100% humidity in MEM alpha medium supplemented with 10% (v/v) FCS, 100 U/mL Penicillin/Streptomycin, and 100 μg/L methotrexate. For experiments, cells were grown in 225 cm^2 tissue culture flasks until almost confluent. Cells were removed from the flask using trypsin-EDTA and resuspended in extracellular recording solution for immediate experimentation.
Cells, at a density of 1.5-2 million per mL, were placed on the Quattro system, added to the planar patch plate and seals allowed to establish for 5-10 mins. After assessing seal resistances (typically >50 MΩ), whole-cell access was obtained by perforation with 100 μg/mL amphotericin B. Baseline currents were measured by a pre-compound scan obtained by application of a voltage ramp from −100 to +100 mV. CFTR was activated by the addition of 10 μM forskolin to each of the 384 wells of the patch plate. After 5 min incubation the post-compound 1 currents were measured, again by application of a voltage ramp from −100 to +100 mV. Test compounds, diluted from 10 mM stocks in DMSO in extracellular solution were then added to the patch plate and were incubated for a further 10 min. The post-compound 2 currents were measured by the application of the same voltage ramp from −100 to +100 mV. The inhibition of CFTR was determined from the difference in current between the forskolin addition (post-compound 1) and the test compound (post-compound 2). This was determined at both −100 mV and +100 mV which represents the inward and outward current respectively.
Extracellular solution (ECS): 145 mM NaCl, 4 mM CsCl, 5 mM D-glucose, 10 mM TES, 1 mM CaCl2, 1 mM MgCl2, pH 7.4 NaOH
Intracellular solution (ICS): 113 mM L-Aspartic acid, 113 mM CsOH, 27 mM CsCl, 1 mM NaCl, 1 mM MgCl2, 1 mM EGTA, 10 mM TES. pH 7.2 with CsOH. Filter sterilized before use.
(In patch-clamp work, channel activity is measured electrically.)

T1 sequence (P13569 whole entry): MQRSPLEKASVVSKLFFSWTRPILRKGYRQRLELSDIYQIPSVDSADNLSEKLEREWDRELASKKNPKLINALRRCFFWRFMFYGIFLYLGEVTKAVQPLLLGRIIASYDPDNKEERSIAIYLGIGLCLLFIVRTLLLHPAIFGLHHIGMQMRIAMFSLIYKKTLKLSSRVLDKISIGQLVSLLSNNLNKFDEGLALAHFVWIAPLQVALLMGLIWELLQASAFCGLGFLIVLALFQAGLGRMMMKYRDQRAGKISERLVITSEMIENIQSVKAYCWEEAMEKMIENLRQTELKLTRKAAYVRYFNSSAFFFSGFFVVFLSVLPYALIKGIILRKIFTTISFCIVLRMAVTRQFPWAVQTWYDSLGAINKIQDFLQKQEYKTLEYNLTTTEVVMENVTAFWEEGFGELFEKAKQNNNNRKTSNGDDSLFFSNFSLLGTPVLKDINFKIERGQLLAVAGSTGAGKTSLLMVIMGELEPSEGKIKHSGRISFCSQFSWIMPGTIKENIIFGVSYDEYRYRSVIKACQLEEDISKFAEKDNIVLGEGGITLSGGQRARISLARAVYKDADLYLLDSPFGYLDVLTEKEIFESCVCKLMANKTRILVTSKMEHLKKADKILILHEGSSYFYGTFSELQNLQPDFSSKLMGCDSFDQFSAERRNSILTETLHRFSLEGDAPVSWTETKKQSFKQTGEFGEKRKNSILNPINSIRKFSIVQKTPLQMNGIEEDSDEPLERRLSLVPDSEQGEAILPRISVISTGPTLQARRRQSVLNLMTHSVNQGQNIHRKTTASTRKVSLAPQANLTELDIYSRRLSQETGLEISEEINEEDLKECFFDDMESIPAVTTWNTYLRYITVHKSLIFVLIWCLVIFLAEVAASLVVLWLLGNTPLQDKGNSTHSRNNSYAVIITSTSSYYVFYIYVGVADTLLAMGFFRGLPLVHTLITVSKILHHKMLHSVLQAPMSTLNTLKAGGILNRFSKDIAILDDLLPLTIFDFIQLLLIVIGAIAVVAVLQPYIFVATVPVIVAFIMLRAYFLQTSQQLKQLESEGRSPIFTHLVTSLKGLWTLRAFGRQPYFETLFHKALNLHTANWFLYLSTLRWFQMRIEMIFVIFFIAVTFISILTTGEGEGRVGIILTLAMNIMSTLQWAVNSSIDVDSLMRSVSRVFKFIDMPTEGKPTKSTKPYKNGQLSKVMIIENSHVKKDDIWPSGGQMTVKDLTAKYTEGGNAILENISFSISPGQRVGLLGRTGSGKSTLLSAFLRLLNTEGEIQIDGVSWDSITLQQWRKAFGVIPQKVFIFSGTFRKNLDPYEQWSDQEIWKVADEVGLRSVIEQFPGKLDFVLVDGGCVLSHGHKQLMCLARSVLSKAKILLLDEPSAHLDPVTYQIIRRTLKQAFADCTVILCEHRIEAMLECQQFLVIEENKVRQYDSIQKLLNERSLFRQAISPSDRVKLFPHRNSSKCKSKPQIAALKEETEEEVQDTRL

The IC50 is the concentration that gives 50% inhibition. A high value points to a need for much substance. The compound `Cc1csc(C2CCCn3c(-c4cccc(C#N)c4)c4c(=O)n(C)c(=O)n(C)c4c32)n1` (single isomer, unassigned) [Example 9.1, 3-(1,3-dimethyl-10-(4-methylthiazol-2-yl)-2,4-dioxo-1,2,3,4,7,8,9,10-octahydropyrimido[4,5-a]indolizin-5-yl)benzonitrile] gave an IC50 of 0.29 µM.

For the compound `Cn1c(=O)c2c(-c3nc(CO)cs3)n3c(c2n(C)c1=O)C(c1nc(Cl)cs1)CCC3` (single isomer, unassigned) [Example 13.1a, 10-(4-chlorothiazol-2-yl)-5-(4-(hydroxymethyl)thiazol-2-yl)-1,3-dimethyl-7,8,9,10-tetrahydropyrimido[4,5-a]indolizine-2,4(1H,3H)-dione], the IC50 came out at 0.1 µM.

`Cn1c(=O)c2c(-c3cccc(F)c3)n3c(c2n(C)c1=O)[C@H](c1nc(Cl)cs1)C[C@@H](CO)C3` (single isomer, unassigned) [Example 23a, 10-(4-chlorothiazol-2-yl)-5-(3-fluorophenyl)-8-(hydroxymethyl)-1,3-dimethyl-7,8,9,10-tetrahydropyrimido[4,5-a]indolizine-2,4(1H,3H)-dione] gave an IC50 of 0.05 µM. This IC50 is about 2-fold lower than that of the compound before.

Take `Cc1coc(-c2c3c(=O)n(C)c(=O)n(C)c3c3n2CCSC3c2ccc(Cl)o2)n1` (racemic) [Example 15.10, 10-(5-Chlorofuran-2-yl)-1,3-dimethyl-5-(4-methyloxazol-2-yl)-7,8-dihydro-1H-pyrimido[4′,5′:3,4]pyrrolo[2,1-c][1,4]thiazine-2,4(3H,10H)-dione]: the IC50 came to 1.18 µM.

Turning to `Cc1ccc([C@H]2CCCn3c(-c4ccccc4)c4c(=O)n(C)c(=O)n(C)c4c32)o1` [Example 6.4, (S)-1,3-Dimethyl-10-(5-methylfuran-2-yl)-5-phenyl-7,8,9,10-tetrahydropyrimido[4,5-a]indolizine-2,4(1H,3H)-dione], the IC50 was greater than 30 µM.

As for `Cc1csc(-c2c3c(=O)n(C)c(=O)n(C)c3c3n2CCSC3c2ccc(Cl)o2)n1` (single isomer, unassigned) [Example 3.1.1, 10-(5-chlorofuran-2-yl)-1,3-dimethyl-5-(4-methylthiazol-2-yl)-7,8-dihydro-1H-pyrimido[4′,5′:3,4]pyrrolo[2,1-c][1,4]thiazine-2,4(3H,10H)-dione], half-maximal inhibition (IC50) required 0.41 µM.

On to `Cn1c(=O)c2c(C3=CCCCC3)n3c(c2n(C)c1=O)C(c1ccc(Cl)o1)SCC3` (single isomer, unassigned) [Example 3.1.2, 10-(5-chlorofuran-2-yl)-5-(cyclohex-1-en-1-yl)-1,3-dimethyl-7,8-dihydro-1H-pyrimido[4′,5′:3,4]pyrrolo[2,1-c][1,4]thiazine-2,4(3H,10H)-dione], for which half-maximal inhibition (IC50) required 1.51 µM.

In turn, `Cc1csc(-c2c3c(=O)n(C)c(=O)n(C)c3c3n2C[C@@H](Cn2ccnc2)S[C@@H]3c2ccc(Cl)o2)n1` (single isomer, unassigned) [Example 28a, 8-((1H-imidazol-1-yl)methyl)-10-(5-chlorofuran-2-yl)-1,3-dimethyl-5-(4-methylthiazol-2-yl)-7,8-dihydro-1H-pyrimido[4′,5′:3,4]pyrrolo[2,1-c][1,4]thiazine-2,4(3H,10H)-dione] displayed an IC50 of 0.11 µM.

Regarding `Cn1ccc(-c2c3c(=O)n(C)c(=O)n(C)c3c3n2C[C@H](CO)S[C@H]3c2ccc(Cl)o2)n1` (single isomer, unassigned) [Example 17.1, 10-(5-Chlorofuran-2-yl)-8-(hydroxymethyl)-1,3-dimethyl-5-(1-methyl-1H-pyrazol-3-yl)-7,8-dihydro-1H-pyrimido[4′,5′:3,4]pyrrolo[2,1-c][1,4]thiazine-2,4(3H,10H)-dione], the IC50 amounted to 0.23 µM.

`Cc1ccc([C@@H]2CCCn3c(-c4ccccc4)c4c(=O)n(C)c(=O)n(C)c4c32)o1` [Example 6.3, (R)-1,3-Dimethyl-10-(5-methylfuran-2-yl)-5-phenyl-7,8,9,10-tetrahydropyrimido[4,5-a]indolizine-2,4(1H,3H)-dione] yielded an IC50 of 2.24 µM.

`Cn1c(=O)c2c(-c3nc(C(=O)O)cs3)n3c(c2n(C)c1=O)C(c1ccc(Cl)o1)SCC3` (racemic) [Example 25, 2-(10-(5-Chlorofuran-2-yl)-1,3-dimethyl-2,4-dioxo-2,3,4,7,8,10-hexahydro-1H-pyrimido[4′,5′:3,4]pyrrolo[2,1-c][1,4]thiazin-5-yl)thiazole-4-carboxylic acid] returned an IC50 of 4.84 µM.

On to `Cc1nc(-c2c3c(=O)n(C)c(=O)n(C)c3c3n2C[C@H](CO)S[C@H]3c2ccc(Cl)o2)cs1` (single isomer, unassigned) [Example 17.2, 10-(5-Chlorofuran-2-yl)-8-(hydroxymethyl)-1,3-dimethyl-5-(2-methylthiazol-4-yl)-7,8-dihydro-1H-pyrimido[4′,5′:3,4]pyrrolo[2,1-c][1,4]thiazine-2,4(3H,10H)-dione], for which the IC50 turned out to be 0.24 µM.

`Cc1ccc(C2SCCn3c(-c4ccccc4)c4c(=O)n(C)c(=O)n(C)c4c32)o1` (single isomer, unassigned) [Example 1.2, 1,3-Dimethyl-10-(5-methylfuran-2-yl)-5-phenyl-7,8-dihydro-1H-pyrimido[4′,5′:3,4]pyrrolo[2,1-c][1,4]thiazine-2,4(3H,10H)-dione] gave an IC50 of 0.79 µM.

On to `Cc1csc(-c2c3c(=O)n(C)c(=O)n(C)c3c3n2C[C@@H](CN2CCCC2=O)S[C@@H]3c2ccc(Cl)o2)n1` (single isomer, unassigned) [Example 30.1a, 10-(5-chlorofuran-2-yl)-1,3-dimethyl-5-(4-methylthiazol-2-yl)-8-((2-oxopyrrolidin-1-yl)methyl)-7,8-dihydro-1H-pyrimido[4′,5′:3,4]pyrrolo[2,1-c][1,4]thiazine-2,4(3H,10H)-dione], for which it took 0.25 µM to reach half-maximal inhibition (IC50).

Compound `C=C1Cn2c(-c3cccc(F)c3)c3c(=O)n(C)c(=O)n(C)c3c2C1c1nc(Cl)cs1` (racemic) [Example 29, 9-(4-Chlorothiazol-2-yl)-5-(3-fluorophenyl)-1,3-dimethyl-8-methylene-8,9-dihydro-1H-pyrimido[4,5-a]pyrrolizine-2,4(3H,7H)-dione] registered an IC50 of 0.44 µM.

`COc1cccc(-c2c3c(=O)n(C)c(=O)n(C)c3c3n2CCSC3c2ccc(Cl)o2)c1` (single isomer, unassigned) [Example 15.13, 10-(5-Chlorofuran-2-yl)-5-(3-methoxyphenyl)-1,3-dimethyl-7,8-dihydro-1H-pyrimido[4′,5′:3,4]pyrrolo[2,1-c][1,4]thiazine-2,4(3H,10H)-dione] came in with an IC50 of 0.62 µM.

As for `CC(=O)NC[C@H]1Cn2c(-c3nc(C)cs3)c3c(=O)n(C)c(=O)n(C)c3c2[C@H](c2ccc(Cl)o2)S1` (single isomer, unassigned) [Example 26.3a, N-((10-(5-chlorofuran-2-yl)-1,3-dimethyl-5-(4-methylthiazol-2-yl)-2,4-dioxo-2,3,4,7,8,10-hexahydro-1H-pyrimido[4′,5′:3,4]pyrrolo[2,1-c][1,4]thiazin-8-yl)methyl)acetamide], inhibition was half-maximal at 0.45 µM (IC50). This IC50 and that of the compound before are within 1.5-fold of each other.

For the compound `Cc1ccc(C2SCCn3c(-c4ccccc4)c4c(=O)n(C)c(=O)n(C)c4c32)s1` (racemic) [Example 1.10, 1,3-Dimethyl-10-(5-methylthiophen-2-yl)-5-phenyl-7,8-dihydro-1H-pyrimido[4′,5′:3,4]pyrrolo[2,1-c][1,4]thiazine-2,4(3H,10H)-dione], inhibition was half-maximal at 8.08 µM (IC50).
